{
  "source": "patent EP0041644B1",
  "about": "(priority 1980, dated 1981)",
  "key": {"[1]": {"test_system": "L1210 Leukemia", "assay": "L1210 Leukemia - Test 1 (survival of tumor-bearing mice)", "format": "in vivo", "conditions": "for Effect MST % T/C / MST Days: d. 1 only", "from_the_text": "This evaluation of the ammonium salt finds the drug to be active against L1210 (ip) leukemia when administered ip one day post-implant of 10^6 L1210 cells (maximum T/C was 164%). […] The vehicle for the ammonium salt was water."}, "[2]": {"test_system": "L1210 Leukemia", "assay": "L1210 Leukemia - Test 3 (vehicle comparison)", "format": "in vivo, mice", "conditions": "for Effect MST % T/C / MST Days: Day 1 only"}, "[3]": {"test_system": "B16 Melanoma", "assay": "B16 Melanoma - Test 1 (ip tumor brei)", "format": "in vivo, mice", "conditions": "for Effect MST % T/C / MST Days: QD 1→9, vehicle H2O"}, "[4]": {"test_system": "B16 Melanoma", "assay": "B16 Melanoma - Test 2 (ip tumor brei)", "format": "in vivo, mice", "conditions": "QD +9"}},
  "data": [
    {"smiles": "[NH2][Pt]1([NH2])[O]C(=O)C([O-])C(=O)[O]1.[NH4+]", "note": "[Example 1, 2-Hydroxymalonato diammine platinum (II), ammonium salt]", "values": [
      {"measurement": "Effect MST % T/C", "setting": "[1]; 10 mg/kg/day ip", "value": 136, "unit": "% T/C"},
      {"measurement": "MST Days", "setting": "[1]; 10 mg/kg/day ip", "value": 9.5, "unit": "days"},
      {"measurement": "Effect MST % T/C", "setting": "[1]; 20 mg/kg/day ip", "value": 129, "unit": "% T/C"},
      {"measurement": "MST Days", "setting": "[1]; 20 mg/kg/day ip", "value": 9.0, "unit": "days"},
      {"measurement": "Effect MST % T/C", "setting": "[1]; 40 mg/kg/day ip", "value": 143, "unit": "% T/C"},
      {"measurement": "MST Days", "setting": "[1]; 40 mg/kg/day ip", "value": 10.0, "unit": "days"},
      {"measurement": "Effect MST % T/C", "setting": "[1]; 60 mg/kg/day ip", "value": 157, "unit": "% T/C"},
      {"measurement": "MST Days", "setting": "[1]; 60 mg/kg/day ip", "value": 11.0, "unit": "days"},
      {"measurement": "Effect MST % T/C", "setting": "[1]; 80 mg/kg/day ip", "value": 157, "unit": "% T/C"},
      {"measurement": "MST Days", "setting": "[1]; 80 mg/kg/day ip", "value": 11.0, "unit": "days"},
      {"measurement": "Effect MST % T/C", "setting": "[1]; 100 mg/kg/day ip", "value": 164, "unit": "% T/C"},
      {"measurement": "MST Days", "setting": "[1]; 100 mg/kg/day ip", "value": 11.5, "unit": "days"},
      {"measurement": "maximum T/C", "setting": "[1]; ip one day post-implant of 10^6 L1210 cells, vehicle water", "value": 164, "unit": "%"},
      {"measurement": "Effect MST % T/C", "setting": "[2]; 40 mg/kg ip, vehicle H2O", "value": 143, "unit": "% T/C"},
      {"measurement": "MST Days", "setting": "[2]; 40 mg/kg ip, vehicle H2O", "value": 10.0, "unit": "days"},
      {"measurement": "Effect MST % T/C", "setting": "[2]; 40 mg/kg ip, vehicle Saline", "value": 114, "unit": "% T/C"},
      {"measurement": "MST Days", "setting": "[2]; 40 mg/kg ip, vehicle Saline", "value": 8.0, "unit": "days"},
      {"measurement": "Effect MST % T/C", "setting": "[2]; 60 mg/kg ip, vehicle H2O", "value": 143, "unit": "% T/C"},
      {"measurement": "MST Days", "setting": "[2]; 60 mg/kg ip, vehicle H2O", "value": 10.0, "unit": "days"},
      {"measurement": "Effect MST % T/C", "setting": "[2]; 60 mg/kg ip, vehicle Saline", "value": 100, "unit": "% T/C"},
      {"measurement": "MST Days", "setting": "[2]; 60 mg/kg ip, vehicle Saline", "value": 7.0, "unit": "days"},
      {"measurement": "Effect MST % T/C", "setting": "[2]; 80 mg/kg ip, vehicle H2O", "value": 143, "unit": "% T/C"},
      {"measurement": "MST Days", "setting": "[2]; 80 mg/kg ip, vehicle H2O", "value": 10.0, "unit": "days"},
      {"measurement": "Effect MST % T/C", "setting": "[2]; 80 mg/kg ip, vehicle Saline", "value": 114, "unit": "% T/C"},
      {"measurement": "MST Days", "setting": "[2]; 80 mg/kg ip, vehicle Saline", "value": 8.0, "unit": "days"},
      {"measurement": "Effect MST % T/C", "setting": "[2]; 100 mg/kg ip, vehicle H2O", "value": 107, "unit": "% T/C"},
      {"measurement": "MST Days", "setting": "[2]; 100 mg/kg ip, vehicle H2O", "value": 7.5, "unit": "days"},
      {"measurement": "Effect MST % T/C", "setting": "[2]; 100 mg/kg ip, vehicle Saline", "value": 143, "unit": "% T/C"},
      {"measurement": "MST Days", "setting": "[2]; 100 mg/kg ip, vehicle Saline", "value": 10.0, "unit": "days"},
      {"measurement": "Maximum increase in median lifespan (T/C)", "setting": "[2]; single dose ip, saline and water as vehicles", "value": 143, "unit": "%"},
      {"measurement": "Effect MST % T/C", "setting": "[3]; 4 mg/kg/day ip", "value": 192, "unit": "% T/C"},
      {"measurement": "MST Days", "setting": "[3]; 4 mg/kg/day ip", "value": 37.5, "unit": "days"},
      {"measurement": "Effect MST % T/C", "setting": "[3]; 8 mg/kg/day ip", "value": 190, "unit": "% T/C"},
      {"measurement": "MST Days", "setting": "[3]; 8 mg/kg/day ip", "value": 37.0, "unit": "days"},
      {"measurement": "Effect MST % T/C", "setting": "[3]; 16 mg/kg/day ip", "value": 121, "unit": "% T/C"},
      {"measurement": "MST Days", "setting": "[3]; 16 mg/kg/day ip", "value": "23,5 Days"},
      {"measurement": "Effect MST % T/C", "setting": "[3]; 24 mg/kg/day ip", "value": 36, "unit": "% T/C"},
      {"measurement": "MST Days", "setting": "[3]; 24 mg/kg/day ip", "value": 7.0, "unit": "days"},
      {"measurement": "Effect MST % T/C", "setting": "[3]; 32 mg/kg/day ip", "value": 31, "unit": "% T/C"},
      {"measurement": "MST Days", "setting": "[3]; 32 mg/kg/day ip", "value": 6.0, "unit": "days"},
      {"measurement": "maximum T/C", "setting": "[3]; ip B16, ip QD 1→9", "value": 190, "unit": "%"},
      {"measurement": "Average Weight Change", "setting": "[4]; 2 mg/kg/day ip", "value": -0.7, "unit": "g"},
      {"measurement": "Effect MST % T/C", "setting": "[4]; 2 mg/kg/day ip", "value": 153, "unit": "% T/C"},
      {"measurement": "MST Days", "setting": "[4]; 2 mg/kg/day ip", "value": 31.5, "unit": "days"},
      {"measurement": "Average Weight Change", "setting": "[4]; 4 mg/kg/day ip", "value": -2.0, "unit": "g"},
      {"measurement": "Effect MST % T/C", "setting": "[4]; 4 mg/kg/day ip", "value": 158, "unit": "% T/C"},
      {"measurement": "MST Days", "setting": "[4]; 4 mg/kg/day ip", "value": 32.5, "unit": "days"},
      {"measurement": "Average Weight Change", "setting": "[4]; 8 mg/kg/day ip", "value": -0.9, "unit": "g"},
      {"measurement": "Effect MST % T/C", "setting": "[4]; 8 mg/kg/day ip", "value": 180, "unit": "% T/C"},
      {"measurement": "MST Days", "setting": "[4]; 8 mg/kg/day ip", "value": 37.0, "unit": "days"},
      {"measurement": "Average Weight Change", "setting": "[4]; 16 mg/kg/day ip", "value": -1.3, "unit": "g"},
      {"measurement": "Effect MST % T/C", "setting": "[4]; 16 mg/kg/day ip", "value": 234, "unit": "% T/C"},
      {"measurement": "MST Days", "setting": "[4]; 16 mg/kg/day ip", "value": 48.0, "unit": "days"},
      {"measurement": "Survivors Day 10 (60)", "setting": "[4]; Day 10, 2 mg/kg/day ip", "value": "9/10"},
      {"measurement": "Survivors Day 10 (60)", "setting": "[4]; Day 10, 4 mg/kg/day ip", "value": "9/10"},
      {"measurement": "Survivors Day 10 (60)", "setting": "[4]; Day 10, 8 mg/kg/day ip", "value": "9/10"},
      {"measurement": "Survivors Day 10 (60)", "setting": "[4]; Day 10, 16 mg/kg/day ip", "value": "8/10"},
      {"measurement": "Survivors Day 10 (60)", "setting": "[4]; Day 60 (figure in parentheses), 16 mg/kg/day ip", "value": 2},
      {"measurement": "Water-solubility at room temperature", "value": 10000, "unit": "µg/mL"},
      {"measurement": "Solubility in H2O at 22-25°C", "setting": "water", "value": 10000, "unit": "µg/mL"}
    ]}
  ]
}
